Test results reported in patent US20150017665A1, “Peptides and Methods for Detecting MPO-ANCA” (The University of North Carolina at Chapel Hill, priority 2012, published 2015).
Each block holds one molecule with its values, some of them ahead of it.

Legend:
[1] = test system: mice; settings: Ooi et al. 2012; cited from earlier work
[2] = test system: anti-MPO antibodies of immunized DR2 Tg mice; assay: Epitope excision MS of IgG from immunized DR2 Tg mice with recombinant mouse MPO; type: binding; settings: DR2 Tg mice immunized with MPO aa442-460
Procedure: (§1) Mass spectrometry analysis of ANCA-negative IgG and mouse IgG samples were conducted as above. With the exception of protein substrate, immobilized ANCA-negative IgG were exposed to whole leukocyte lysate preparation from a healthy donor and mouse IgG to recombinant mouse MPO (R&D Systems).
As HLA-MHC II help shape the B and T cell repertoires, and consequently the response to foreign and self-antigens, we wanted to define the epitope specificity of the anti-MPO autoantibodies that could be induced experimentally using DR2 Tg mice. In this way, we could assess development of the anti-MPO antibody response after immunization of a single epitope in the context of a human MHC II. IgG from sera of immunized mice was profiled for anti-MPO epitope specificity using epitope excision MS. DR2 Tg mice developed antibodies targeting the human B cell epitope aa447-459 which is within a conserved region of both murine and human MPO. Unpredictably, immunized DR2 Tg mice initiated a polyclonal response producing autoantibodies against the entire MPO molecule. The epitope profile was astonishingly similar to that of the MPO-ANCA human profile (Table 6), indicative of the critical nature of this epitope.

[3] = test system: DR2 Tg mice; assay: Actively induced anti-MPO associated glomerulonephritis (peptide immunization); type: in vivo, mouse; settings: day 28
Procedure: DR2 Tg mice (Ooi et al., Proc. Natl. Acad. Sci. USA 109:E2615 (2012); Rich et al., Eur. J. Immunol. 34:1251 (2004)) were immunized s.c. with 3×100 μg of peptide antigen (OVA323-339, n=4 or MPO442-460, n=10) first in FCA then FIA on days 0, 7 and 14. Mice were culled on day 28.
For indirect immunofluorescence, ethanol fixed thioglycolate induced peritoneal neutrophils were cytospun onto slides, purified serum IgG (1 mg/ml) was applied for 20 minutes then anti-mouse IgG Ab was detected using FITC conjugated anti-mouse IgG Ab (Silenus) (Ooi et al., Proc. Natl. Acad. Sci. USA 109:E2615 (2012); Lock, J. Clin. Pathol. 47:4 (1994)). Albuminuria was assessed by ELISA (Bethyl Laboratories) and haematuria assessed by urine test strips (Combur) from a 24 hour urine sample. Blood urea nitrogen (BUN) was measured using standard laboratory methods on serum collected at the end of experiment. Glomerular abnormalities assessed, on […], PAS stained, formalin fixed, paraffin embedded sections (≧50 glomeruli/mouse), were thickening of the capillary walls and mesangial hypercellularity (Ooi et al., J. Am. Soc. Nephrol. 20:980 (2009)). Total glomerular cell nuclei were enumerated (≧20 glomeruli/mouse). Glomerular neutrophils were detected by immunoperoxidase staining of 6 μm thick, periodate lysine paraformaldehyde fixed, frozen kidney sections using anti-Gr-1 antibodies (RB6-8C5).

[4] = test system: IgG from ANCA-negative AAV patients; assay: Epitope excision MS of ANCA-negative IgG with whole leukocyte lysate; type: binding, human; settings: total Ig from ANCA-negative AAV patients
Procedure: as §1
A variation of epitope excision MS for MPO-ANCA was adapted into a ‘discovery’ tool for identifying unknown autoantigens in ANCA-negative AAV, which presents clinically as vasculitis although with a negative serology for MPO-ANCA and PR3-ANCA. ANCA-negative AAV patients were identified by retrospective review of the medical records, with criteria of histological evidence of vasculitis and negative serological test results from the UNC Hospital clinical laboratory. As an additional measure, sera samples selected for analysis were retested for ANCA reactivity by the laboratory of Dr. John Niles, Massachusetts General Hospital, Boston, USA and were confirmed to be ANCA-negative. Protein lysate of total peripheral blood leukocytes were probed for antigen/s that were reactive with purified total Ig from ANCA-negative AAV patients' sera (FIG. 5A). […] MPO-ANCA specific for this epitope were detected by ELISA using isolated Ig from 8/10 UNC AAV patients and from 6/11 NL AAV patients (Table 2).

[5] = test system: MPO-ANCA; assay: Epitope excision MALDI-TOF/TOF MS of patient and healthy Ig with native MPO; type: binding; set-up: key: HC: Healthy control; Active disease; Remission; settings: human Ig
Source text: Total immunoglobulin (IgG) was purified from sera using protein A/G PLUS-Agarose Reagent according to commercial protocol (Santa Cruz Biotechnology). Purified IgG was immobilized on CNBr-activated Sepharose 4B (GE Healthcare) in compact reaction columns (CRC, USB Corporation) and exposed to native MPO protein (MPO, Elastin Products Co, Inc) followed by digestion with sequencing grade TPCK-treated trypsin (Worthington). MPO-peptides remaining bound to IgG after digestion were eluted with 0.1% trifluoro acetic acid and analyzed on a 4800 Plus Matrix-Assisted Laser Desorption Ionization Time of Flight Mass Spectrometry (MALDI TOF/TOF MS/MS) in conjunction with ProteinPilot software (AB SCIEX).
To identify epitopes of low titer autoantibodies, ^18O labeling (Mirza et al., J. Proteome Res. 7:3042 (2008)) was used to differentiate between the signal and the noise in the MS and MSMS spectra using the 4 Da shifts between the corresponding spectra of labeled and non-labeled peptides. Mass spectrometry analysis for epitopes recognized by MPO autoantibodies from healthy individuals, and for detection of low ANCA titers in remission samples required the use of isotope H2^18O to increase sensitivity (Cambridge Isotope Laboratories). Samples from healthy individuals (n=10) and MPO-ANCA patients in clinical remission (n=35) were processed in the presence of H2^18O. Incorporation of H2^18O on the carboxyl terminus of each proteolytic fragment of MPO during tryptic digestion, trypsin buffer was made with the isotope H2^18O as a diluent.
MPO-ANCA positive patients (n=45) from the University of North Carolina cohort (UNC) were analyzed in the initial studies. Demographics of the cohort (Table 2) indicate a predominantly Caucasian group. Approximately 40% are diagnosed with microscopic polyangiitis (MPA), 40% with renal-limited disease and 20% are diagnosed with granulomatosis with polyangiitis (GPA). To compare epitope specificities related to disease activity, longitudinal samples were analyzed to include active disease (n=52) and remission (n=35) from the UNC cohort (Tables 3 and 4). Ten healthy subjects were included in the analyses. Purified immunoglobulin (Ig) from sera samples was subjected to analysis by epitope excision MALDI-TOF/TOF mass spectrometry (depicted in FIG. 3A) to identify epitope profiles of autoantibodies reactive with MPO. In order to epitope map low titer anti-MPO antibodies from healthy subjects and from patients in disease remission, an approach was designed using the ^16O-to-^18O exchange technique, an adaptation of a proteomics-based quantification method (Mirza et al., J. Proteome Res. 7:3042 (2008)). Incorporation of H2^18O on the carboxyl termini of proteolytic fragments produces a 4 Da mass shift in the MS spectra, decipherable from background noise. MPO epitopes unique to Ig from patients with active disease were designated ‘exclusive to active disease’; epitopes identified in remission samples were designated ‘persistent during remission’; and those present in samples from healthy subjects were designated asymptomatic or ‘natural’.

[6] = test system: MPO-ANCA; assay: Peptide ELISA with total IgG (Chapel Hill and Groningen); type: binding, human; settings: for MPO-ANCA specific for the epitope detected by ELISA, patients positive/tested: isolated Ig
Procedure: A total of 195 IgG samples were tested by native MPO or peptide ELISA. Samples included those from healthy controls (n=59), active disease (n=80) and remission patients (n=56). Total IgG was added to wells (2 μg/well) precoated with 1-2 μg peptide (UNC-CH peptide synthesis core). Goat anti-human with alkaline phosphatase conjugate secondary antibody specific to IgG (H+L) (Millipore, Billerica, Mass.) (1:10,000) was added and detected using 1-Step PNPP substrate (Thermo Scientific) and read at λ=405 nm after 30 min. Identical peptides were used in ELISAs at both locations; all other substrates used to test NL cohort samples by ELISAs were prepared in Groningen. Total IgG (1:500˜2 mg/well) was added to precoated wells blocked with 1% BSA. Secondary antibody, goat anti-human conjugated with alkaline phosphatase (A5403; Sigma-Aldrich) (1:5000), was added and detected using p-nitrophenyl-phosphate disodium substrate.

[7] = molecular target: T1, MPO peptide aa447-459 (Homo sapiens, UniProt P05164); assay: Serum proteins binding to immobilized MPO peptide aa447-459; settings: identified by mass spectrometry
T1 construct: made in house; host or cells: chemical synthesis (a peptide core is named only for the ELISA peptides)
Source text: (§2) Serum proteins that bound immobilized MPO peptide aa447-459 were eluted and sequenced for identification. […] Sequenced on a 4800 MALDI TOF-TOF, the protein was identified as ceruloplasmin (CP), and confirmed by western blot analysis probed with a rabbit anti-human anti-CP polyclonal antibody (Abeam). Native CP was purchased (Enzo Life Science) and proteolytically digested in vitro by plasmin (Haemtech).
(§3) To isolate the putative serum factor, immobilized MPO aa447-459 peptide was used as bait to fish-out host proteins with binding capacity. […] However, the CP bound to aa447-459 was primarily a 50 kD protein on sodium dodecyl sulfate polyacrylamide gel electrophoresis (SDS-PAGE), while full length CP is 151 kD (FIG. 6D). An anti-ceruloplasmin western blot confirmed the fragment to be a portion of CP (FIG. 6E). To test the role of proteolytic cleavage in generating the blocking factor, a plasmin-generated fragment of CP (Kingston et al., Proc. Natl. Acad. Sci. USA 74:5377 (1977)) was tested for epitope masking capability (FIG. 6F).

[8] = test system: anti-MPO^447-459 autoantibody; assay: Epitope masking ELISA with ceruloplasmin and its fragments; type: binding, human; settings: ELISA
Source text: as §2, §3

[9] = test system: MPO-ANCA IgG (polyclonal); assay: Effect of CP on binding of polyclonal MPO-ANCA Ig to native MPO (ELISA); set-up: species or system human; settings: MPO-ANCA IgG from four patients
Source text: as §3

Molecule: PRWNGEKLYQEARKIVGAMV (listed as Homo sapiens) [murine MPO peptide aa409-428]
induction of glomerulonephritis [1]: induces glomerulonephritis in mice

Molecule: RKIVGAMVQIITY (listed as Homo sapiens) [aa447-459]
Epitopes found in immunized mice [2]: RKIVGAMVQIITY | glomerular disease [3]: develop glomerulonephritis | peptide eluted from ANCA-negative Ig (MS) [4]: A sole peptide was eluted and identified | Found in samples: Healthy control, Active disease, or Remission, (HC, A, R) ([5]; Table 1): A | Found in samples: Healthy control, Active disease, or Remission, (HC, A, R) ([5]; Table 6): A | level of ELISA reactivity versus disease activity ([6]; ANCA-negative patients, UNC (n=4) and NL (n=5), longitudinal): corresponded well with disease activity, declining to low levels as patients entered disease remission | share of MPO-ANCA positive AAV patients with active disease in whom the epitope was identified ([6]; MPO-ANCA positive AAV, active disease): ~50% | reactivity by ELISA, share of patient samples ([6]; NL population, active disease): 52.2% | reactivity by ELISA, share of patient samples ([6]; UNC MPO-ANCA patient samples, active disease): 42.9% | ELISA reactivity in clinical remission ([6]; UNC and NL cohorts, remission samples): Reactivity declined in clinical remission | MPO-ANCA specific for the epitope detected by ELISA, patients positive/tested ([6]; ANCA-negative NL AAV patients): 6/11 | MPO-ANCA specific for the epitope detected by ELISA, patients positive/tested ([6]; ANCA-negative UNC AAV patients): 8/10

effect on binding of polyclonal MPO-ANCA Ig to native MPO [9]: unaffected
B1: full length CP: full length ceruloplasmin, 151 kD, purchased (Enzo Life Science) (protein)
chain: KEKHYYIGIIETTWDYASDHGEKKLISVDTEHSNIYLQNGPDRIGRLYKKALYLQYTDETFRTTIEKPVWLGFLGPIIKAETGDKVYVHLKNLASRPYTFHSHGITYYKEHEGAIYPDNTTDFQRADDKVYPGEQYTYMLLATEEQSPGEGDGNCVTRIYHSHIDAPKDIASGLIGPLIICKKDSLDKEKEKHIDREFVVMFSVVDENFSWYLEDNIKTYCSEPEKVDKDNEDFQESNRMYSVNGYTFGSLPGLSMCAEDRVKWYLFGMGNEVDVHAAFFHGQALTNKNYRIDTINLFPATLFDAYMVAQNPGEWMLSCQNLNHLKAGLQAFFQVQECNKSSSKDNIRGKHVRHYYIAAEEIIWNYAPSGIDIFTKENLTAPGSDSAVFFEQGTTRIGGSYKKLVYREYTDASFTNRKERGPEEEHLGILGPVIWAEVGDTIRVTFHNKGAYPLSIEPIGVRFNKNNEGTYYSPNYNPQSRSVPPSASHVAPTETFTYEWTVPKEVGPTNADPVCLAKMYYSAVEPTKDIFTGLIGPMKICKKGSLHANGRQKDVDKEFYLFPTVFDENESLLLEDNIRMFTTAPDQVDKEDEDFQESNKMHSMNGFMYGNQPGLTMCKGDSVVWYLFSAGNEADVHGIYFSGNTYLWRGERRDTANLFPQTSLTLHMWPDTEGTFNVECLTTDHYTGGMKQKYTVNQCRRQSEDSTFYLGERTYYIAAVEVEWDYSPQREWEKELHHLQEQNVSNAFLDKGEFYIGSKYKKVVYRQYTDSTFRVPVERKAEEEHLGILGPQLHADVGDKVKIIFKNMATRPYSIHAHGVQTESSTVTPTLPGETLTYVWKIPERSGAGTEDSACIPWAYYSTVDQVKDLYSGLIGPLIVCRRPYLKVFNPRRKLEFALLFLVFDENESWYLDDNIKTYSDHPEKVNKDDEEFIESNKMHAINGRMFGNLQGLTMHVGDEVNWYLMGMGNEIDLHTVHFHGHSFQYKHRGVYSSDVFDIFPGTYQTLEMFPRTPGIWLLHCHVTDHIHAGMETTYTVLQNEDTKSG
binding to immobilized MPO aa447-459 peptide [7]: identified by mass spectrometry as a binding partner | epitope masking capability [8]: did not | epitope masking capability ([8]; listed as full-length CP): did not mask the epitope
